Test system: P12-Ichikawa
Assay: cell viability relative to DMSO control; higher = less cytotoxic
Settings: 48 h
In short: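 Viability is expressed as a percentage of DMSO wells within each plate, and cell-free wells serve as background. Seeding densities in the 1536-well plates (5 μl) were 500 cells/well for NOMO1 or SEM leukemia cells and 1000 cells/well for P12-Ichikawa. Each line was adapted for at least four passages in each medium. Library compounds in DMSO were pin-dosed at 47 μM to 0.79 nM (11 points, threefold), and CellTiter-Glo One luminescence was read after 48 h at 37°C.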

[1] = HPLM + 10% dialyzed FBS, 0.000781 µM
[2] = HPLM + 10% dialyzed FBS, 0.00234 µM
[3] = HPLM + 10% dialyzed FBS, 0.00702 µM
[4] = HPLM + 10% dialyzed FBS, 0.0211 µM
[5] = HPLM + 10% dialyzed FBS, 0.0632 µM
[6] = HPLM + 10% dialyzed FBS, 0.19 µM
[7] = HPLM + 10% dialyzed FBS, 0.569 µM
[8] = HPLM + 10% dialyzed FBS, 1.71 µM
[9] = HPLM + 10% dialyzed FBS, 5.12 µM
[10] = HPLM + 10% dialyzed FBS, 15.4 µM
[11] = HPLM + 10% dialyzed FBS, 46.1 µM
[12] = RPMI 5 mM glucose + 10% FBS, 0.000781 µM
[13] = RPMI 5 mM glucose + 10% FBS, 0.00234 µM
[14] = RPMI 5 mM glucose + 10% FBS, 0.00702 µM
[15] = RPMI 5 mM glucose + 10% FBS, 0.0211 µM
[16] = RPMI 5 mM glucose + 10% FBS, 0.0632 µM
[17] = RPMI 5 mM glucose + 10% FBS, 0.19 µM
[18] = RPMI 5 mM glucose + 10% FBS, 0.569 µM
[19] = RPMI 5 mM glucose + 10% FBS, 1.71 µM
[20] = RPMI 5 mM glucose + 10% FBS, 5.12 µM
[21] = RPMI 5 mM glucose + 10% FBS, 15.4 µM
[22] = RPMI 5 mM glucose + 10% FBS, 46.1 µM
[23] = RPMI 5 mM glucose + 10% dialyzed FBS, 0.000781 µM
[24] = RPMI 5 mM glucose + 10% dialyzed FBS, 0.00234 µM
[25] = RPMI 5 mM glucose + 10% dialyzed FBS, 0.00702 µM
[26] = RPMI 5 mM glucose + 10% dialyzed FBS, 0.0211 µM
[27] = RPMI 5 mM glucose + 10% dialyzed FBS, 0.0632 µM
[28] = RPMI 5 mM glucose + 10% dialyzed FBS, 0.19 µM
[29] = RPMI 5 mM glucose + 10% dialyzed FBS, 0.569 µM
[30] = RPMI 5 mM glucose + 10% dialyzed FBS, 1.71 µM
[31] = RPMI 5 mM glucose + 10% dialyzed FBS, 5.12 µM
[32] = RPMI 5 mM glucose + 10% dialyzed FBS, 15.4 µM
[33] = RPMI 5 mM glucose + 10% dialyzed FBS, 46.1 µM

Compound | cell viability [1] | cell viability [2] | cell viability [3] | cell viability [4] | cell viability [5] | cell viability [6] | cell viability [7] | cell viability [8] | cell viability [9] | cell viability [10] | cell viability [11] | cell viability [12] | cell viability [13] | cell viability [14] | cell viability [15] | cell viability [16] | cell viability [17] | cell viability [18] | cell viability [19] | cell viability [20] | cell viability [21] | cell viability [22] | cell viability [23] | cell viability [24] | cell viability [25] | cell viability [26] | cell viability [27] | cell viability [28] | cell viability [29] | cell viability [30] | cell viability [31] | cell viability [32] | cell viability [33]
O=C(O)c1nn(Cc2ccc(Cl)cc2Cl)c2ccccc12 | 94.1% | 93% | 97.1% | 92.5% | 89.5% | 84% | 81.1% | 88.9% | 89.6% | 79.2% | 87.1% | 87.5% | 86.6% | 95.3% | 85.2% | 86.1% | 85.7% | 84.3% | 82.2% | 89.5% | 85.2% | 84.2% | 87.6% | 79.1% | 89.1% | 86.4% | 81.3% | 74% | 73.9% | 74.4% | 81.5% | 71.7% | 76.9%
Cc1ccc([S+](=O)([O-])NC(=O)NN2CC3CCCC3C2)cc1 (stereo not given) | 107% | 110% | 110% | 114% | 112% | 106% | 100% | 80.8% | 66.4% | 44.5% | 22.7% | 110% | 108% | 103% | 102% | 113% | 108% | 97.7% | 70.5% | 57.3% | 34.7% | 20.1% | 107% | 109% | 116% | 106% | 112% | 102% | 93.4% | 72.4% | 51.4% | 36.3% | 23.9%
Oc1ccc(C2CNCCc3c2cc(O)c(O)c3Cl)cc1 (stereo not given) | 92.6% | 92.3% | 86.9% | 97.7% | 92.7% | 98.5% | 92.4% | 95.7% | 96.1% | 100% | 99.4% | 87% | 98.4% | 95.8% | 96.8% | 86.5% | 98.8% | 90.3% | 98% | 96.1% | 103% | 101% | 90.3% | 93.3% | 80.2% | 86.9% | 84.7% | 96.9% | 86.1% | 88.5% | 94.1% | 90% | 92.7%
COc1ccccc1OCC(O)CN1CCN(CC(=O)Nc2c(C)cccc2C)CC1 (stereo not given) | 122% | 119% | 127% | 127% | 130% | 132% | 135% | 132% | 140% | 112% | 110% |  |  |  |  |  |  |  |  |  |  |  |  |  |  |  |  |  |  |  |  |  | 
COC(=O)Nc1nc2cc(Sc3ccccc3)ccc2[nH]1 | 124% | 115% | 119% | 108% | 112% | 114% | 111% | 96% | 19.5% | 25.2% | 31.8% | 112% | 113% | 118% | 111% | 113% | 124% | 115% | 97.6% | 16.8% | 29.3% | 28.7% | 101% | 109% | 120% | 114% | 113% | 111% | 102% | 90% | 24.5% | 30.4% | 35.5%
CN(C)[C@H]\1[C@@H]2[C@@H](O)[C@H]3\C(=C(O)/[C@]2(O)C(=O)\C(=C1O)C(N)=O)C(=O)C4=C(C=CC=C4O)[C@@]3(C)O |  |  |  |  |  |  |  |  |  |  |  | 130% | 123% | 125% | 127% | 127% | 131% | 130% | 106% | 96.1% | 128% | 116% |  |  |  |  |  |  |  |  |  |  | 
Cc1ccc(C)c(OCCCC(C)(C)C(=O)O)c1 | 87% | 92.4% | 90.8% | 95% | 101% | 97.9% | 93.2% | 102% | 106% | 98% | 92.1% | 90% | 86.9% | 84.5% | 90.7% | 91.1% | 92.9% | 89% | 91.7% | 84.1% | 92.4% | 97.1% | 81.2% | 82.9% | 84.3% | 92.6% | 84.5% | 87.7% | 85.5% | 86.6% | 88.8% | 88% | 90%
Cc1n[nH]c2ccc(-c3cncc(OC[C@@H](N)Cc4c[nH]c5ccccc45)c3)cc12 |  |  |  |  |  |  |  |  |  |  |  | 108% | 114% | 100% | 98.9% | 88.5% | 70.2% | 80.3% | 35.5% | 17.8% | 2.32% | 1.05% | 107% | 119% | 105% | 108% | 96.9% | 74.8% | 64% | 38.5% | 27.1% | 2.44% | 1.33%
CNC(=O)c1cc(COc2nnc(Nc3ccc(Cl)cc3)c3ccoc23)ccn1 | 119% | 109% | 110% | 105% | 106% | 113% | 105% | 103% | 106% | 101% | 89.4% | 117% | 116% | 118% | 115% | 116% | 113% | 112% | 110% | 105% | 107% | 102% | 114% | 130% | 108% | 114% | 104% | 115% | 116% | 100% | 111% | 101% | 97.4%
COC1=CC2=C(C=C1CC3=C(F)C(=CC=C3)Cl)C(=O)\C(=C/N2[C@H](CO)C(C)C)C(O)=O | 125% | 123% | 122% | 107% | 121% | 119% | 114% | 115% | 110% | 95.9% | 13.4% |  |  |  |  |  |  |  |  |  |  |  | 116% | 125% | 124% | 117% | 125% | 121% | 119% | 112% | 103% | 67.3% | 10%
CN1\C(=C(O)/C2=C(C=C(Cl)S2)[S+]1([O-])=O)C(=O)NC3=NC=CC=C3 | 125% | 123% | 118% | 107% | 122% | 119% | 113% | 112% | 110% | 104% | 100% | 124% | 125% | 118% | 116% | 128% | 114% | 121% | 128% | 123% | 118% | 106% | 121% | 119% | 125% | 115% | 114% | 118% | 121% | 117% | 104% | 98.1% | 96.2%
NC(=O)[C@@H](CCC(F)(F)F)N(Cc1ccc(-c2ncon2)cc1F)[S+](=O)([O-])c1ccc(Cl)cc1 | 105% | 98.7% | 98.7% | 103% | 92.4% | 96.2% | 96.1% | 89.4% | 87.1% | 80% | 5.81% | 92.4% | 95% | 84.6% | 101% | 100% | 88.8% | 86.3% | 90.3% | 81.6% | 80.9% | 58% | 94.6% | 88.2% | 96.5% | 92.3% | 92.8% | 87.3% | 81.7% | 84.8% | 83.8% | 84.2% | 6.79%
Cc1cccc(Nc2nc(N[C@@H]3CCCC[C@@H]3N)ncc2C(N)=O)c1 | 110% | 113% | 121% | 117% | 119% | 116% | 114% | 30.9% | 11% | 10.8% | 14.5% | 120% | 107% | 110% | 102% | 117% | 97.9% | 107% | 103% | 35.1% | 13.7% | 14.7% | 103% | 108% | 123% | 123% | 121% | 127% | 125% | 80.5% | 24.3% | 23.3% | 27.5%
OCCN1CCN(CCCN2c3ccccc3Sc3ccc(C(F)(F)F)cc32)CC1 | 95.4% | 98.3% | 103% | 109% | 110% | 108% | 73.3% | 113% | 74.2% | 18.2% | 8.87% | 107% | 108% | 109% | 123% | 109% | 114% | 87.8% | 107% | 74.2% | 36.6% | 9.41% | 99.3% | 99.7% | 111% | 110% | 107% | 107% | 96.4% | 104% | 78.7% | 59.8% | 12.7%
O=C(Nc1ccncc1)C(=O)c1cn(Cc2ccc(Cl)cc2)c2ccccc12 | 103% | 101% | 111% | 96.6% | 70.5% | 35% | 18.4% | 21.8% | 40.1% | 35.2% | 46.5% | 104% | 98.6% | 107% | 96.5% | 62.8% | 34.8% | 16.5% | 24.3% | 34.1% | 39.2% | 44.1% | 90.9% | 94.2% | 97.2% | 98.2% | 79.1% | 46.5% | 20.8% | 23.1% | 34.6% | 36.2% | 46.6%
Oc1ccc(-c2nc(-c3ccncc3)c(-c3ccc(F)cc3)[nH]2)cc1 | 115% | 112% | 118% | 114% | 124% | 120% | 130% | 115% | 64.3% | 13% | 5.07% | 99.2% | 99.7% | 117% | 111% | 111% | 126% | 117% | 115% | 98.8% | 60.7% | 2.19% | 103% | 112% | 113% | 119% | 123% | 113% | 130% | 116% | 82.7% | 46% | 6.46%
CN1CCC(=C2c3ccccc3CCc3sccc32)CC1 | 110% | 108% | 111% | 106% | 111% | 118% | 112% | 111% | 114% | 111% | 90.8% | 108% | 116% | 109% | 117% | 119% | 124% | 132% | 110% | 120% | 116% | 89.7% | 101% | 107% | 113% | 104% | 109% | 108% | 115% | 114% | 115% | 107% | 82.4%

Reference: the supplement of paper PMC11451515
